# Patent US20090304654A1, “METHODS FOR ISOLATING ADIPOSE-DERIVED STEM CELLS AND THERAPEUTIC USE THEREOF” (REGENTS OF THE UNIVERSITY OF CALIFORNIA, priority 2008, published 2009)
# System: RADSC-1 cells
# Test: Endothelial-inducing factors: LDL-uptake and endothelial markers of ADSC in subtraction/addition media and with FGFR inhibitor
# Type: cell-based, rat
# Settings: for LDL-uptake ability on omission of the factor from EGM2: one week in subtraction EGM2; for LDL-uptake ability in EBM2 supplemented with the factor: one week in addition media
# Protocol: RADSC-1 cells were grown in fully or partially supplemented EGM2 and then assayed for LDL-uptake. Each partially supplemented EGM2 is indicated by the omitted factor; for example, “−FGF” denotes EGM2 without FGF2. Experiments were repeated 3 times.
# RADSC-1 cells were grown in EGM2, EBM2, or EBM2 supplemented with the indicated factor, and then assayed for LDL-uptake. Experiments were repeated 3 times.
# RADSC-1 cells were grown in EGM2 or EBM2 supplemented with FGF2 and vitamin C in the presence or absence of FGFR inhibitor PD173074. The cells were then assayed for LDL-uptake. Red color indicates the presence of LDL, which was in a conjugated form with the red fluorescence dye DiI. RADSC-1 cells were also grown in VEGF/vitamin C-supplemented EBM2 for the purpose of excluding the involvement of VEGF signaling, as PD173074 is known to have a weak inhibitory effect on VEGF receptor. Experiments were repeated 3 times.
# EGM2 medium is supplied by the manufacturer in the form of a basal medium (EBM2) and individual vials of supplemental factors. […] Specifically, we prepared “subtraction” EGM2 media by omitting one supplemental factor at a time.
# The above experiments identified FGF2 as the only growth factor required for the induction of ADSC's LDL-uptake ability. We then tested whether FGF2 was able to induce the expression of additional endothelial characteristics. RADSC-1 cells were grown in DMEM, EGM2, or EBM2 supplemented with FGF2 and vitamin C. They were then stained for endothelial markers CD31, vWF, and eNOS, and tested for tube formation.
# In the absence of PD173074 (with the addition of solvent only), cells grown in either the completely supplemented EGM2 or the FGF2/vitamin C-supplemented EBM2 acquired the LDL-uptake ability (FIG. 23).
Molecule,LDL-uptake ability on omission of the factor from EGM2,LDL-uptake ability in EBM2 supplemented with the factor,acquisition of LDL-uptake ability in the presence of inhibitor (cells in EGM2 or FGF2/vitamin C-supplemented EBM2)
"EGF: epidermal growth factor, supplement of EGM2 (NSDSECPLSHDGYCLHDGVCMYIEALDKYACNCVVGYIGERCQYRDLKWWELR; UniProt P01133 971-1023, looked up)",essentially no effect,–,–
FGF2: growth factor supplement of EGM2,greatly diminished LDL-uptake ability,"still effective, albeit at a reduced level",–
CCN(CC)CCCCNc1ncc2cc(-c3cc(OC)cc(OC)c3)c(NC(=O)NC(C)(C)C)nc2n1 [PD173074],–,–,unable to do so
C[C@]12CCC(=O)C=C1CC[C@@H]1[C@@H]2[C@@H](O)C[C@@]2(C)[C@H]1CC[C@]2(O)C(=O)CO [hydrocortisone],essentially no effect,–,–
heparin,essentially no effect,–,–
VEGF,essentially no effect,–,–
O=C1O[C@H]([C@@H](O)CO)C(O)=C1O [vitamin C],greatly diminished LDL-uptake ability,"still somewhat effective, but at a much reduced level",–
